Experimental findings from ChEMBL document CHEMBL1127710 (Bioorg Med Chem Lett, 1994) are described below.

In assay [1] the target is T1, Phosphodiesterase 4 (Homo sapiens, UniProt P27815+Q08499+Q07343+Q08493). In words: Inhibition of cAMP-specific Phosphodiesterase 4 (PDE IV). The assay is classed as protein assay.
Assay [2] has as its target T1, Phosphodiesterase 4. In words: Inhibition of rolipram binding to Phosphodiesterase 4. The assay is classed as protein assay.

What is called Ki is the equilibrium dissociation constant of an inhibitor or competing ligand from its target. The low end stands for higher affinity, the high end for lower affinity. As usually defined, the Kd is the equilibrium constant for the complex coming apart. Lower therefore signals tighter binding. The molecule `O=C1CC(c2ccc3c(c2)OC2(CCCCC2)O3)CN1` (configuration not stated) yielded a Ki in assay [1] of 63.9 µM. Further, the Kd in assay [2] came to 16.5 µM.

In assay [1], `O=C1CC(c2cc3c(c(OC4CCCC4)c2)OCC3)CN1` (configuration not stated) registered a Ki of 3.69 µM. This molecule also had a Kd in assay [2] of 4 µM.

In turn, `O=C1CC(c2cc(OC3CCCC3)c3occc3c2)CN1` (configuration not stated) came in with a Ki in assay [1] of 0.26 µM. The molecule also yielded a Kd in assay [2] of 0.03 µM.

Regarding `O=C1CC(c2ccc3c(c2)OCCO3)CN1` (configuration not stated), the Ki in assay [1] was above 100 µM. The molecule further registered a Kd in assay [2] above 100 µM.

For `O=C1CC(c2ccc3c(c2)OCO3)CN1` (configuration not stated), in assay [1], the Ki is above 100 µM. This molecule also returned a Kd in assay [2] above 100 µM.

Consider `O=C1CC(c2cc3c(c(OC4CCCC4)c2)OCCC3)CN1` (configuration not stated), for which the Ki in assay [1] worked out at 1.17 µM. For the same molecule, the Kd in assay [2] came out at 0.21 µM.
